Experimental data from patent US11180496B2 (Daewoong Pharmaceutical Co., Ltd., priority 2017, dated 2021).
pIC50: −log10 of the molar value.

Experiments:
[1] = biological target: T1, BTK (Homo sapiens, UniProt Q06187); assay: BTK inhibitory activity, ADP-Glo + BTK Kinase enzyme system kit (Promega); assay type: biochemical; settings: BTK enzyme 1 ng/uL, ATP 10 uM, 15 min preincubation, luminescence, duplicate
T1 construct: purchased Promega
Outline: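 BTK activity measured by ADP-Glo luminescence: kinase reaction with substrate and 10 uM ATP (final) for 1 h at 30°C, then ADP-Glo reagent 40 min and detection 30 min at 30°C. Run in duplicate; IC50 calculated relative to no-compound and positive controls.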

[2] = biological target: T2, ITK (Homo sapiens, UniProt Q08881); assay: ITK inhibitory activity, ADP-Glo + ITK Kinase enzyme system kit (Promega); assay type: biochemical; settings: ITK enzyme 0.4 ng/uL, ATP 25 uM, 15 min preincubation, luminescence, duplicate
T2 construct: purchased Promega
T2 sequence (Q08881 1-620): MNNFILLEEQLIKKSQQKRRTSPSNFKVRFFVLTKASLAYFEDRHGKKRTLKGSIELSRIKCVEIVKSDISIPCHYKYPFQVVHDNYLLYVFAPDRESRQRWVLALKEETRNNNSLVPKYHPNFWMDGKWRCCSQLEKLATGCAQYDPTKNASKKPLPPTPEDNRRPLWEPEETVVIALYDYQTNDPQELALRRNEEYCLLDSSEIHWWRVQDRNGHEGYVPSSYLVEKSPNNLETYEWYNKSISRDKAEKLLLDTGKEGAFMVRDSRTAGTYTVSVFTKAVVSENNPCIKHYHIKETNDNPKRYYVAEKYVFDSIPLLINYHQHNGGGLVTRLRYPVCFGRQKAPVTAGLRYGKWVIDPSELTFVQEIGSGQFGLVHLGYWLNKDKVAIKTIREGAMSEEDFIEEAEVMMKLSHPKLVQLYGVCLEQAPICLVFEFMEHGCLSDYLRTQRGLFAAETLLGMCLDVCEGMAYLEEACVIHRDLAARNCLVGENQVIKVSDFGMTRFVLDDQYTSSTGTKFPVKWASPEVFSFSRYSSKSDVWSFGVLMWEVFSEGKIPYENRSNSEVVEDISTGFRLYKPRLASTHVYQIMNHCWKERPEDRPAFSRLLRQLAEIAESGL
Outline: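 ITK activity by ADP-Glo luminescence: substrate and ATP (final 25 uM) reacted 1 h at 30° C, then ADP-Glo reagent 40 min and detection reagent 30 min at 30° C. IC50 from duplicates, normalised to no-compound and enzyme-free controls.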

T1 sequence (Q06187 whole entry): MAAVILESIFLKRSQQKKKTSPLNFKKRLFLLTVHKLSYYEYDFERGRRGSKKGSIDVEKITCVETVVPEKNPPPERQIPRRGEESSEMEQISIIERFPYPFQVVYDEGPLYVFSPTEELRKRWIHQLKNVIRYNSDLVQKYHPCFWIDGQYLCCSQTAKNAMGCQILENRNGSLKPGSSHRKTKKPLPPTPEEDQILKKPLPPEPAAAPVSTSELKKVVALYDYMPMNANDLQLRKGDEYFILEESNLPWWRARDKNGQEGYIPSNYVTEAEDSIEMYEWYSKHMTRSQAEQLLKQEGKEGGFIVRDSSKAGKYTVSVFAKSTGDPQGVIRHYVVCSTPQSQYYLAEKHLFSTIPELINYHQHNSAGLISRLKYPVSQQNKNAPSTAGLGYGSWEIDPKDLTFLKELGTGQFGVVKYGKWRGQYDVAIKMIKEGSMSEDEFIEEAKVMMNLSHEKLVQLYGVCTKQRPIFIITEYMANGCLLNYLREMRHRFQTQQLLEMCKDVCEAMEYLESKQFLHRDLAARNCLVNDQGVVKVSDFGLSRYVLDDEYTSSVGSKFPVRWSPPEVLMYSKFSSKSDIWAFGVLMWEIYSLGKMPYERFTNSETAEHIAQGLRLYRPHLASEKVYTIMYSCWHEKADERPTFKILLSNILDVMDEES

Compound	pIC50 [1]	pIC50 [2]
C=CC(=O)N1CCC(n2nc(-c3ccc(Oc4ccccc4)cc3)c3c(N)ncc(/C=C/c4ccc(F)cc4)c32)CC1 [Example 15, (E)-1-(4-(4-amino-7-(4-fluorostyryl)-3-(4-phenoxyphenyl)-1H-pyrazolo[4,3-c]pyridin-1-yl)piperidin-1-yl)prop-2-en-1-one]	8.43	< 6.30
C=C(C)C(=O)N1CCC[C@@H](n2nc(-c3ccc(C(=O)Nc4ccccn4)cc3F)c3c(N)ncc(Cl)c32)C1 [Example 55, (R)-4-(4-amino-7-chloro-1-(1-methacryloylpiperidin-3-yl)-1H-pyrazolo[4,3-c]pyridin-3-yl)-3-fluoro-N-(pyridin-2-yl)benzamide]	8.19	6.91
C=CC(=O)N1CCCC(n2nc(-c3ccc(Oc4ccccc4)cc3)c3c(N)ncc(/C=C/c4ccc(F)cc4)c32)C1 (centres unmarked) [Example 14, (E)-1-(3-(4-amino-7-(4-fluorostyryl)-3-(4-phenoxyphenyl)-1H-pyrazolo[4,3-c]pyridin-1-yl)piperidin-1-yl)prop-2-en-1-one]	8.39	7.42
C=CC(=O)N1CCC[C@@H](n2nc(-c3ccc(C(=O)Nc4ccccc4)cc3)c3c(N)ncc(-c4cnn(C)c4)c32)C1 [Example 26, (R)-4-(1-(1-acryloylpiperidin-3-yl)-4-amino-7-(1-methyl-1H-pyrazol-4-yl)-1H-pyrazolo[4,3-c]pyridin-3-yl)-N-phenyl benzamide]	8.57	7.23
C=CC(=O)N1CCC[C@@H](n2nc(-c3ccc(C(=O)Nc4ccccc4)cc3)c3c(N)ncc(-c4cc[nH]n4)c32)C1 [Example 30, (R)-4-(1-(1-acryloylpiperidin-3-yl)-4-amino-7-(1H-pyrazol-5-yl)-1H-pyrazolo[4,3-c]pyridin-3-yl)-N-phenylbenzamide]	8.52	6.31
C=CC(=O)N1CCC[C@@H](n2nc(C(=O)Nc3nc4cc(Cl)ccc4o3)c3c(N)nccc32)C1 [Example 71, (R)-1-(1-acryloylpiperidin-3-yl)-4-amino-N-(5-chlorobenzo[d]oxazol-2-yl)-1H-pyrazolo[4,3-c]pyridine-3-carboxamide]	8.47	8.39
C=CC(=O)N1CCCC(n2nc(-c3ccc(Oc4ccccc4)cc3)c3c(N)ncc(-c4cnn(C)c4)c32)C1 (centres unmarked) [Example 7, 1-(3-(4-amino-7-(1-methyl-1H-pyrazol-4-yl)-3-(4-phenoxyphenyl)-1H-pyrazolo[4,3-c]pyridin-1-yl)piperidin-1-yl)prop-2-en-1-one]	8.52	7.44
C=CC(=O)N1CCC[C@@H](n2nc(C(=O)Nc3nc4cc(F)ccc4o3)c3c(N)ncc(Cl)c32)C1 [Example 76, (R)-1-(1-acryloylpiperidin-3-yl)-4-amino-7-chloro-N-(5-fluorobenzo[d]oxazol-2-yl)-1H-pyrazolo[4,3-c]pyridine-3-carboxamide]	8.82	8.68
C=CC(=O)N1CCC[C@@H](n2nc(-c3ccc(C(=O)Nc4ccccn4)cc3)c3c(N)ncc(C)c32)C1 [Example 45, (R)-4-(1-(1-acryloylpiperidin-3-yl)-4-amino-7-methyl-1H-pyrazolo[4,3-c]pyridin-3-yl)-N-(pyridin-2-yl)benzamide]	7.95	7.18
C=CC(=O)N1CCC[C@@H](n2nc(C(=O)Nc3nc4ccccc4o3)c3c(N)nccc32)C1 [Example 77, (R)-1-(1-acryloylpiperidin-3-yl)-4-amino-N-(benzo[d]oxazol-2-yl)-1H-pyrazolo[4,3-c]pyridine-3-carboxamide]	8.30	7.88
